Laboratory results as given in US11247990B1, “Bicyclic fused pyridine compounds as inhibitors of TAM kinases” (ARRAY BIOPHARMA INC., priority 2017, dated 2022).

Target: GST-tagged recombinant human TYRO3 kinase domain (Homo sapiens (Human), UniProt Q06418)
Experiment: TYRO3 Enzyme Assay (LanthaScreen Eu Kinase Binding, TR-FRET)
Conditions: averaged IC50
Procedure: Compounds of Formula I were screened for their ability to inhibit TYRO3 kinase using Invitrogen's LanthaScreen™ Eu Kinase Binding technology. […] After a 60-minute incubation at 22° C., the reaction was measured using a PerkinElmer EnVision multimode plate reader via TR-FRET dual wavelength detection, and the percent of control (POC) calculated using a ratiometric emission factor. […] The POC values were fit to a 4 parameter logistic curve and the IC50 value is point where the curve crosses 50 POC.

GST-tagged recombinant human TYRO3 kinase domain, sequence (Q06418 518-790): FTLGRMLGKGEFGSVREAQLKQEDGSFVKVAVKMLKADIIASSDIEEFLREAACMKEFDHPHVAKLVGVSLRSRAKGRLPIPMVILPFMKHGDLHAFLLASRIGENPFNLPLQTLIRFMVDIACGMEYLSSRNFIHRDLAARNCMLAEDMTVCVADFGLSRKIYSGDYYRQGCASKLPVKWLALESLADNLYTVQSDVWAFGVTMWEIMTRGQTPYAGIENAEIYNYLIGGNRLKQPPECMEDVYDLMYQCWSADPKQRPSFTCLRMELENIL

SMILES	IC50 [µM]
CNc1cc2c(cn1)c(-c1cnn(C)c1)nn2[C@H]1CC[C@@H](Oc2cccnn2)CC1 [Example 120, N-methyl-3-(1-methyl-1H-pyrazol-4-yl)-1-((1s,4s)-4-(pyridazin-3-yloxy)cyclohexyl)-1H-pyrazolo[4,3-c]pyridin-6-amine]	1 to 10
CNc1cc2c(cn1)c(-c1cnn(C)c1)nn2[C@H]1CC[C@@H](Oc2ccc(OC)nn2)CC1 [Example 123, 1-((1s,4s)-4-((6-methoxypyridazin-3-yl)oxy)cyclohexyl)-N-methyl-3-(1-methyl-1H-pyrazol-4-yl)-1H-pyrazolo[4,3-c]pyridin-6-amine]	1 to 10
CNc1cc2c(cn1)c(-c1cnn(C)c1)nn2[C@H]1CC[C@@H](Oc2ccc(OC)nc2)CC1 [Example 130, 1-((1s,4s)-4-((6-methoxypyridin-3-yl)oxy)cyclohexyl)-N-methyl-3-(1-methyl-1H-pyrazol-4-yl)-1H-pyrazolo[4,3-c]pyridin-6-amine]	1 to 10
CNc1cc2c(cn1)c(-c1cnn(C)c1)nn2[C@H]1CC[C@@H](Oc2ccc(OCc3ccccc3)nc2)CC1 [Example 131, 1-((1s,4s)-4-((6-(benzyloxy)pyridin-3-yl)oxy)cyclohexyl)-N-methyl-3-(1-methyl-1H-pyrazol-4-yl)-1H-pyrazolo[4,3-c]pyrdin-6-amine]	1 to 10
CNc1cc2c(cn1)c(-c1cnn(C)c1)nn2[C@H]1CC[C@@H](Oc2cncnc2)CC1 [Example 141, N-methyl-3-(1-methyl-1H-pyrazol-4-yl)-1-((1s,4s)-4-(pyrimidin-5-yloxy)cyclohexyl)-1H-pyrazolo[4,3-c]pyridin-6-amine]	1 to 10
CNc1cc2c(cn1)c(-c1cnn(C)c1)nn2C1CCC(Oc2cc(N(C)C)cnn2)CC1 (stereo not shown) [Example 154, 1-((1s,4s)-4-((5-(dimethylamino)pyridazin-3-yl)oxy)cyclohexyl)-N-methyl-3-(1-methyl-1H-pyrazol-4-yl)-1H-pyrazolo[4,3-c]pyridin-6-amine]	1 to 10
CNc1cc2c(cn1)c(-c1cnn(C)c1)nn2[C@H]1CC[C@@H](Oc2cccc(C(F)(F)F)n2)CC1 [Example 174, N-methyl-3-(1-methyl-1H-pyrazol-4-yl)-1-((1s,4s)-4-((6-(trifluoromethyl)pyridin-2-yl)oxy)cyclohexyl)-1H-pyrazolo[4,3-c]pyridin-6-amine]	1 to 10
CNc1cc2c(cn1)c(-c1cnn(C)c1)nn2[C@H]1CC[C@@H](Oc2nc(C)ncc2OC)CC1 [Example 176, 1-((1s,4s)-4-((5-methoxy-2-methylpyrimidin-4-yl)oxy)cyclohexyl)-N-methyl-3-(1-methyl-1H-pyrazol-4-yl)-1H-pyrazolo[4,3-c]pyridin-6-amine]	1 to 10
CCNc1cc2c(cn1)c(-c1cnn(C)c1)nn2[C@H]1CC[C@@H](Oc2cnn(C)c2C)CC1 [Example 226, 1-((1s,4s)-4-((1,5-dimethyl-1H-pyrazol-4-yl)oxy)cyclohexyl)-N-ethyl-3-(1-methyl-1H-pyrazol-4-yl)-1H-pyrazolo[4,3-c]pyridin-6-amine]	1 to 10
CNC(=O)c1ncccc1O[C@H]1CC[C@@H](n2nc(-c3cnn(C)c3)c3cnc(NC)cc32)CC1 [Example 276, N-methyl-3-(((1s,4s)-4-(3-(1-methyl-1H-pyrazol-4-yl)-6-(methylamino)-1H-pyrazolo[4,3-c]pyridin-1-yl)cyclohexyl)oxy)picolinamide]	1 to 10
Cn1cc(-c2nn([C@H]3CC[C@@H](Oc4cccnc4C(F)(F)F)CC3)c3cc(Nc4ccccc4)ncc23)cn1 [Example 304, 3-(1-methyl-1H-pyrazol-4-yl)-N-phenyl-1-((1s,4s)-4-((2-(trifluoromethyl)pyridin-3-yl)oxy)cyclohexyl)-1H-pyrazolo[4,3-c]pyridin-6-]	< 0.01
CCNc1cc2c(cn1)c(C1CCCC1)nn2[C@H]1CC[C@@H](Oc2nccc(C(F)(F)F)c2F)CC1 [Example 321, 3-cyclopentyl-N-ethyl-1-((1s,4s)-4-((3-fluoro-4-(trifluoromethyl)pyridin-2-l)oxy)cyclohexyl)-1H-pyrazolo[4,3-c]pyridin-6-amine]	1 to 10
CCNc1cc2c(cn1)c(C1CCCCC1)nn2[C@H]1CC[C@@H](Oc2nccc(C(F)(F)F)c2F)CC1 [Example 322, 3-cyclohexyl-N-ethyl-1-((1s,4s)-4-((3-fluoro-4-(trifluoromethyl)pyridin-2-yl)oxy)cyclohexyl)-1H-pyrazolo[4,3-c]pyridin-6-amine]	1 to 10
CNc1cc2c(cn1)c(-c1cnn(C)c1)nn2[C@H]1CC[C@@H](Oc2cccc(C(=O)N(C)C)c2)CC1 [Example 454]	1 to 10
CNc1cc2c(cn1)c(-c1cnn(C)c1)nn2[C@H]1CC[C@@H](Oc2cccc(C(=O)NC(C)C)c2)CC1 [Example 455, N-isopropyl-3-(((1s,4s)-4-(3-(1-methyl-1H-pyrazol-4-yl)-6-(methylamino)-1H-pyrazolo[4,3-c]pyridin-1-yl)cyclohexyl)oxy)benzamide]	1 to 10
CNc1cc2c(cn1)c(-c1cnn(C)c1)nn2[C@H]1CC[C@@H](Oc2ccc(C(=O)N(C)C)cc2)CC1 [Example 457, N,N-dimethyl-4-(((1s,4s)-4-(3-(1-methyl-1H-pyrazol-4-yl)-6-(methylamino)-1H-pyrazolo[4,3-c]pyridin-1-yl)cyclohexyl)oxy)benzamide]	1 to 10
CNc1cc2c(cn1)c(-c1cnn(C)c1)nn2[C@H]1CC[C@@H](Oc2ccc(C(=O)NCCOC)cc2)CC1 [Example 459, N-(2-methoxyethyl)-4-(((1s,4s)-4-(3-(1-methyl-1H-pyrazol-4-yl)-6-(methylamino)-1H-pyrazolo[4,3-c]pyridin-1-yl)cyclohexyl)oxy)benzamide]	1 to 10
CNc1cc2c(cn1)c(-c1cnn(C)c1)nn2[C@H]1CC[C@@H](Oc2cccc(C(=O)NC(C)C)c2F)CC1 [Example 466, 2-fluoro-N-isopropyl-3-(((1s,4s)-4-(3-(1-methyl-1H-pyrazol-4-yl)-6-(methylamino)-1H-pyrazolo[4,3-c]pyridin-1-yl)cyclohexyl)oxy)benzamide]	1 to 10
CCNc1cc2c(cn1)c(-c1cnn(C)c1)nn2[C@H]1CC[C@H](Oc2cccc(F)c2)CC1 [Example 475, N-ethyl-1-((1r,4r)-4-(3-fluorophenoxy)cyclohexyl)-3-(1-methyl-1H-pyrazol-4-yl)-1H-pyrazolo[4,3-c]pyridin-6-amine]	1 to 10

Other lines, results leading:

IC50 [µM]	SMILES
1 to 10	CNc1cc2c(cn1)c(-c1cnn(C)c1)nn2[C@H]1CC[C@H](Oc2cccnn2)CC1 [Example 119, N-methyl-3-(1-methyl-1H-pyrazol-4-yl)-1-((1r,4r)-4-(pyridazin-3-yloxy)cyclohexyl)-1H-pyrazolo[4,3-c]pyridin-6-amine]
1 to 10	CNc1cc2c(cn1)c(-c1cnn(C)c1)nn2[C@H]1CC[C@H](Oc2ccnc(C)c2)CC1 [Example 121, N-methyl-3-(1-methyl-1H-pyrazol-4-yl)-1-((1r,4r)-4-((2-methylpyridin-4-yl)oxy)cyclohexyl)-1H-pyrazolo[4,3-c]pyridin-6-amine]
1 to 10	CNc1cc2c(cn1)c(-c1cnn(C)c1)nn2[C@H]1CC[C@@H](Oc2nccc(C)n2)CC1 [Example 126, N-methyl-3-(1-methyl-1H-pyrazol-4-yl)-1-((1s,4s)-4-((4-methylpyrimidin-2-yl)oxy)cyclohexyl)-1H-pyrazolo[4,3-c]pyridin-6-amine]
1 to 10	CNc1cc2c(cn1)c(-c1cnn(C)c1)nn2[C@H]1CC[C@@H](Oc2ccc(C#N)cn2)CC1 [Example 127, 6-(((1s,4s)-4-(3-(1-methyl-1H-pyrazol-4-yl)-6-(methylamino)-1H-pyrazolo[4,3-c]pyridin-1-yl)cyclohexyl)oxy)nicotinonitrile]
1 to 10	CNc1cc2c(cn1)c(-c1cnn(C)c1)nn2[C@H]1CC[C@@H](Oc2cccnc2C(=O)N(C)C)CC1 [Example 277, N,N-dimethyl-3-(((1s,4s)-4-(3-(1-methyl-1H-pyrazol-4-yl)-6-(methylamino)-1H-pyrazolo[4,3-c]pyridin-1-yl)cyclohexyl)oxy)picolinamide]
1 to 10	CNc1cc2c(cn1)c(-c1cnn(C)c1)nn2[C@H]1CC[C@@H](Oc2cccc(OCC(F)(F)F)n2)CC1 [Example 302, N-methyl-3-(1-methyl-1H-pyrazol-4-yl)-1-((1s,4s)-4-((6-(2,2,2-trifluoroethoxy)pyridin-2-yl)oxy)cyclohexyl)-1H-pyrazolo[4,3-c]pyridin-6-amine]
< 0.01	Cn1cc(-c2nn([C@H]3CC[C@@H](Oc4cn(C)nc4C(F)(F)F)CC3)c3cc(Nc4ccccc4)ncc23)cn1 [Example 303, 3-(1-methyl-1H-pyrazol-4-yl)-1-((1s,4s)-4-((1-methyl-3-(trifluoromethyl)-1H-pyrazol-4-yl)oxy)cyclohexyl)-N-phenyl-1H-pyrazolo[4,3-c]pyridin-6-amine]
< 0.01	CCCNc1cc2c(cn1)c(-c1cnn(C)c1)nn2[C@H]1CC[C@@H](Oc2ccccc2F)CC1 [Example 405, 1-((1s,4s)-4-(2-fluorophenoxy)cyclohexyl)-3-(1-methyl-1H-pyrazol-4-yl)-N-propyl-1H-pyrazolo[4,3-c]pyridin-6-amine]
1 to 10	CNc1cc2c(cn1)c(-c1cnn(C)c1)nn2[C@H]1CC[C@@H](Oc2ccc(C(=O)NC(C)C)cc2)CC1 [Example 458, N-isopropyl-4-(((1s,4s)-4-(3-(1-methyl-1H-pyrazol-4-yl)-6-(methylamino)-1H-pyrazolo[4,3-c]pyridin-1-yl)cyclohexyl)oxy)benzamide]
